Consider six molecules from article PMC7177833, “2-Aminopyridine Analogs Inhibit Both Enzymes of the Glyoxylate Shunt in Pseudomonas aeruginosa” (International Journal of Molecular Sciences, 2020).

The target in assay [1] is T1, ICLPa (isocitrate lyase from P. aeruginosa) (Pseudomonas aeruginosa, UniProt Q9I0K4).
T1 construct: made in house
T1 sequence (Q9I0K4 1-531): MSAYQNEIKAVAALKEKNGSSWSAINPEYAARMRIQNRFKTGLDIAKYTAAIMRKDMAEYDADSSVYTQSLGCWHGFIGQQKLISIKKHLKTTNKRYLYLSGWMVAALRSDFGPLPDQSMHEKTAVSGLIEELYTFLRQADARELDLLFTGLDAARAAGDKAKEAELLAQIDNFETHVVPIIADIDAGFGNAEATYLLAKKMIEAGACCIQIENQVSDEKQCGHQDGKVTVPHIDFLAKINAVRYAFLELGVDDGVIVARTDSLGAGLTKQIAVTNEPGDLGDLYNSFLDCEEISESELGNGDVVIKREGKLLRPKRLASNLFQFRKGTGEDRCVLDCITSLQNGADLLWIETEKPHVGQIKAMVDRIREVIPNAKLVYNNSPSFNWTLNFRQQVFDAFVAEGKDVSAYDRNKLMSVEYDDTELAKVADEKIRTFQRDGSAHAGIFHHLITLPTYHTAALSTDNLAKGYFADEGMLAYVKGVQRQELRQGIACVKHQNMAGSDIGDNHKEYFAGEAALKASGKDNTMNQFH
Nature of the assay: Inhibition of purified ICLPa enzymatic activity. The class given is biochemical. The note with it: for IC50: purified enzyme, 170 nM ICL. The protocol:
(§1) The enzymatic activity of purified ICLPa and MSPa was assayed essentially as previously described. Compounds were added to the reaction mixtures (minus substrates) and incubated for 5 min at 37 °C. The enzyme concentration in the reaction mixtures was 170 nM for ICL and 25 nM for MS (based on the concentration of the monomer in each case). […] The reactions were initiated by the addition of pH-adjusted substrates, and the initial rates were recorded as A324 nm (for ICLPa) and A412 nm (for MSPa) using a Biospectrometer (Eppendorf, Stevenage, UK). Substrate turnover was calculated from the molar extinction coefficient of the assay products: Glyoxylate-phenylhydrazone (16,800/M/cm) for ICLPa and 2-nitro-5-thiobenzoic acid (14,150/M/cm) for MSPa.
(§2) All data fitting was performed with GraphPad Prism version 7.04 (GraphPad Software, Inc., La Jolla, CA, USA). The solid lines are the result of fitting the data to the equations denoted in relevant experimental sections. IC50 values were determined by a nonlinear fit using the equation for sigmoidal dose-response with variable slope. In all graphs, unless otherwise stated, the data points are the mean of experimental triplicates, and all error bars correspond to ± standard deviation.

For assay [2], the target named is T2, MSPa (malate synthase G from P. aeruginosa) (Pseudomonas aeruginosa, UniProt Q9I636).
T2 construct: made in house
In words: Inhibition of purified MSPa enzymatic activity. The class given is biochemical. The note with it: for inhibition at 75 µM: 75 µM compound, read-out: Enzyme Inhibition (%) at 75 µM MSPa. On the procedure:
as §1, §2

The next assay deals with P. aeruginosa PAO1. Nature of the assay: Antibacterial growth assay (OD600, 18 h) in LB or M9-acetate. Type of assay: cell-based. The note with it: Pseudomonas aeruginosa; for inhibition at 200 µM: final optical density; for MIC: PAO1, MIC = lowest concentration inhibiting >75% of growth. On the procedure:
Growth assays were carried out using clear, U-bottom, sterile 96-well plates (Thermo Fisher Scientific, Bishop’s Stortford, UK). P. aeruginosa PAO1 overnight cultures were diluted to a starting OD600 of 0.05 in LB medium or M9 medium supplemented with 0.5% acetate. The test compounds were added to the indicated final concentrations, and the plates were covered with gas-permeable adhesive seals (Scientific Laboratory Supplies, Nottingham, UK). Assay controls included 1% DMSO, a positive antibiotic control (ciprofloxacin, 1 µg/mL), and medium-only wells as a control for background absorbance. […]

[3] abbreviates: 75 µM compound, read-out: Enzyme Inhibition (%) at 75 µM ICLPa.
The mark [4] stands for this setting: PAO1, LB medium, read-out: PAO1 Growth Inhibition (%) at 200 µM LB.
The mark [5] stands for this setting: PAO1, M9-acetate medium, read-out: PAO1 Growth Inhibition (%) at 200 µM M9ac.
[6] abbreviates: M9 medium with 0.5% acetate, read-out: MIC M9ac.

In brackets after ≈: the same amount, converted by molar mass. Where two headings read alike, the source gives them in different places. A value given as a limit tells only on which side of the number the result lay.

T2 sequence (Q9I636 whole entry): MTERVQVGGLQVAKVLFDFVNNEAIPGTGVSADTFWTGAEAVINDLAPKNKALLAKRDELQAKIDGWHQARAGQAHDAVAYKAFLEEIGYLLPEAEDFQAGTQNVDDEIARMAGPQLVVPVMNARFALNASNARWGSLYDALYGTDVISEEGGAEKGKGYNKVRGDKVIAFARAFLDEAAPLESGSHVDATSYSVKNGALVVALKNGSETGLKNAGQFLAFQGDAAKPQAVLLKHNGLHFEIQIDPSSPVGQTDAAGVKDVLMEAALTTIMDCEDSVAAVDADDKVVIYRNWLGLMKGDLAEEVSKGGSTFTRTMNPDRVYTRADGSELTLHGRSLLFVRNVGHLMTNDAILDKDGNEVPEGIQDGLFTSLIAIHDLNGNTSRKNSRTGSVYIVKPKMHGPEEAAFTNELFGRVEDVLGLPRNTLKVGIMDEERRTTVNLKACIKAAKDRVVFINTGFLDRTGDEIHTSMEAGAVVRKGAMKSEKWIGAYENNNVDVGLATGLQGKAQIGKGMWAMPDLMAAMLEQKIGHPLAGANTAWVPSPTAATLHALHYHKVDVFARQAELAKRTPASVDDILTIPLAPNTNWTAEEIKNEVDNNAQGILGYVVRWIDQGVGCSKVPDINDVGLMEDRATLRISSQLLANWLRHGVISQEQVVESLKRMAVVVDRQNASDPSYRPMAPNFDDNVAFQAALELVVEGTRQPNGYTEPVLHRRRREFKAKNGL

In the case of `C=C(CC(=O)O)C(=O)O` [ITA, itaconate, reference compound], the “Enzyme Inhibition (%) at 75 µM ICLPa” value in assay [1] (75 µM compound) was 72.6%. The molecule also displayed a 50% inhibitory concentration (IC50) in assay [1] of 24.9 µM. For the same molecule, in assay [1] (read-out: Enzyme Inhibition (%) at 75 µM ICLPa, 75 µM compound), the inhibition at 75 µM was approximately 70%.

On to `COC(=O)c1ccnc(N/C(=N/C(=O)OC(C)(C)C)NC(=O)OC(C)(C)C)c1` [SB029], for which the half-inhibitory concentration (IC50) in assay [2] is more than 75 µM; in assay [1], 64.7 µM. The inhibition at 75 µM in assay [2] worked out at 0%; in assay [1] (setting [3]), 55.9%. Also, the inhibition at 200 µM turned out to be 6% with P. aeruginosa PAO1 (setting [4]) and 45% with P. aeruginosa PAO1 (setting [5]). Moreover, the MIC in the assay with P. aeruginosa PAO1 (LB medium, read-out: MIC LB) was more than 200 µM; in the assay with P. aeruginosa PAO1 (setting [6]), more than 78.9 µM.

As to `CC(C)(C)OC(=O)/N=C(\NC(=O)OC(C)(C)C)Nc1cc(Br)ccn1` [SB001], the IC50 in assay [2] and in assay [1] was more than 75 µM throughout. Further, the inhibition at 75 µM is 16.2% in assay [2] and 6.1% in assay [1] (setting [3]). The inhibition at 200 µM in the assay with P. aeruginosa PAO1 (setting [4]) came out at 0%; with P. aeruginosa PAO1 (setting [5]) it was 48%. For the same molecule, the MIC with P. aeruginosa PAO1 (LB medium, read-out: MIC LB) is more than 200 µM; in the assay with P. aeruginosa PAO1 (setting [6]), more than 200 µM.

With `CC(C)(C)OC(=O)/N=C(\NC(=O)OC(C)(C)C)Nc1cc(C(F)(F)F)ccn1` [SB022], the half-maximal inhibitory concentration (IC50) in assay [2] and in assay [1] was more than 75 µM throughout. The inhibition at 75 µM in assay [2] is 0%; in assay [1] (setting [3]) it was 4.3%. For the same molecule, the inhibition at 200 µM was found to be 0% with P. aeruginosa PAO1 (setting [4]) and 7% in the assay with P. aeruginosa PAO1 (setting [5]). Moreover, the MIC with P. aeruginosa PAO1 (LB medium, read-out: MIC LB) is more than 200 µM; in the assay with P. aeruginosa PAO1 (setting [6]), more than 200 µM.

As to `CC(C)(C)OC(=O)/N=C(\NC(=O)OC(C)(C)C)Nc1cc(F)ccn1` [SB026], the half-maximal inhibitory concentration (IC50) in assay [2] turned out to be 59.3 µM; in assay [1], 54.5 µM. In addition, the inhibition at 75 µM in assay [2] came to 55.1%; in assay [1] (setting [3]) it was 62%. Moreover, the figures for the inhibition at 200 µM in the assay on P. aeruginosa PAO1 (setting [4]) and in the assay on P. aeruginosa PAO1 (setting [5]) were approximately 23% and 72%, respectively. For the same molecule, the MIC was more than 200 µM in the assay on P. aeruginosa PAO1 (LB medium, read-out: MIC LB) and 70.9 µM (≈ 25.1 µg/mL) in the assay with P. aeruginosa PAO1 (setting [6]).

With `CC(C)(C)OC(=O)/N=C(\NC(=O)OC(C)(C)C)Nc1ccnc(Cl)c1` [SB032], the IC50 is 70.6 µM in assay [2] and 91.8 µM in assay [1]. For the same molecule, the results for the inhibition at 75 µM in assay [2] and in assay [1] (setting [3]) were 48.7% and 43.8%, respectively.
